Experiment [1] concerns the target T1, human recombinant GR (Homo sapiens, UniProt P04150).
T1 construct: purchased PanVera P2812
T1 sequence (P04150 1-777): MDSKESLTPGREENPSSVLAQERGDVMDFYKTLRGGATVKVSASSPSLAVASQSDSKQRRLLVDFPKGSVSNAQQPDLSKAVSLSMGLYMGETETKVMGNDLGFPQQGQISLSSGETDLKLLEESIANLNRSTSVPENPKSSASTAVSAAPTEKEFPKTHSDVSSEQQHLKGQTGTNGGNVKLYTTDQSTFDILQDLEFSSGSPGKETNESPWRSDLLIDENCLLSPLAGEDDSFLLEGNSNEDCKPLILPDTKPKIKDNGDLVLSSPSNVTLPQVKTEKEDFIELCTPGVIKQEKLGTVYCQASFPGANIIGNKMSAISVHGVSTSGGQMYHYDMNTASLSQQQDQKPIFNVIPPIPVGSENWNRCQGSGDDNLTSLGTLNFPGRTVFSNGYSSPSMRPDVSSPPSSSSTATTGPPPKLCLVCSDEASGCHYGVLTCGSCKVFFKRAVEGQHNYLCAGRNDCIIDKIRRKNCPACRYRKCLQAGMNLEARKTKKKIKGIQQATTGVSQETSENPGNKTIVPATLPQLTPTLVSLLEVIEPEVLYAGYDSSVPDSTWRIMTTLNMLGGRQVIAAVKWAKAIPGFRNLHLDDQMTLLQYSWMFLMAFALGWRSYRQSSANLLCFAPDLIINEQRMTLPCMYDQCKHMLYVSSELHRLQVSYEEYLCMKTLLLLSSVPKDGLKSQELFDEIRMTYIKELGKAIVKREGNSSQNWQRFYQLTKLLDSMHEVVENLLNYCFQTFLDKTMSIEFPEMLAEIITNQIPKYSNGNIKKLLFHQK
Put plainly: Human glucocorticoid receptor (GR) fluorescence polarisation (FP) binding assay. The settings on record: human recombinant GR, fluorescence polarisation binding assay; read-out: GR binding. The method in brief: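 Competition fluorescence polarisation: 0.5 nM GS Red labelled glucocorticoid and 1 nM recombinant human GR with 8-point half-log compound series, 1% DMSO, 4 h room temperature, potassium phosphate pH 7.4 buffer with molybdate, EDTA, DTT. Affinity derived from the drop in polarisation, normalised to blank wells.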
Background: Fluorescence polarisation rises when a labelled molecule tumbles more slowly, as on binding a larger partner.

Experiment [2] relates to induction of TAT by dexamethasone in HepG2 cells. Description: HepG2 tyrosine aminotransferase (TAT) assay. The format is cell-based, human. Particulars: HepG2 cells, challenge of 100 nM dexamethasone; Ki from IC50 by Cheng and Prusoff equation.

SMILES strings stand for the structures.

In the case of `CCn1cnc(S(=O)(=O)N2CCC3=Cc4c(cnn4-c4ccc(F)cc4)C[C@]3(C(=O)c3cc(C(F)(F)F)ccn3)C2)c1` [Example 11BY, (R)-(6-((1-ethyl-1H-imidazol-4-yl)sulfonyl)-1-(4-fluorophenyl)-4,4a,5,6,7,8-hexahydro-1H-pyrazolo[3,4-g]isoquinolin-4a-yl)(4-(trifluoromethyl)pyridin-2-yl)methanone], the Ki in experiment [1] is less than 0.5 nM; in experiment [2] it was less than 20 nM.

For the molecule `CCn1cc(S(=O)(=O)N2CCC3=Cc4c(cnn4-c4ccc(F)cc4)C[C@]3(C(=O)c3cscn3)C2)cn1` [Example 11BZ, (R)-(6-((1-ethyl-1H-pyrazol-4-yl)sulfonyl)-1-(4-fluorophenyl)-4,4a,5,6,7,8-hexahydro-1H-pyrazolo[3,4-g]isoquinolin-4a-yl)(thiazol-4-yl)methanone], the results for the Ki in experiment [1] and in experiment [2] were less than 0.5 nM and 20 to 100 nM, respectively.

As to `COc1ccc(S(=O)(=O)N2CCC3=Cc4c(cnn4-c4ccc(F)cc4)C[C@]3(C(=O)c3ccccn3)C2)cc1Cl` [Example 11C, (R)-(6-((3-chloro-4-methoxyphenyl)sulfonyl)-1-(4-fluorophenyl)-4,4a,5,6,7,8-hexahydro-1H-pyrazolo[3,4-g]isoquinolin-4a-yl)(pyridin-2-yl)methanone], the Ki in experiment [1] is less than 0.5 nM; in experiment [2], 20 to 100 nM.

For `CCCn1cc(S(=O)(=O)N2CCC3=Cc4c(cnn4-c4ccc(F)cc4)C[C@]3(C(=O)c3ccccn3)C2)cn1` [Example 11CA, (R)-(1-(4-fluorophenyl)-6-((1-propyl-1H-pyrazol-4-yl)sulfonyl)-4,4a,5,6,7,8-hexahydro-1H-pyrazolo[3,4-g]isoquinolin-4a-yl)(pyridin-2-yl) methanone], the Ki in experiment [1] is less than 0.5 nM; in experiment [2] it was less than 20 nM.

For the molecule `COCCn1cc(S(=O)(=O)N2CCC3=Cc4c(cnn4-c4ccc(F)cc4)C[C@]3(C(=O)c3ccccn3)C2)cn1` [Example 11CB, (R)-(1-(4-fluorophenyl)-6-((1-(2-methoxyethyl)-1H-pyrazol-4-yl)sulfonyl)-4,4a,5,6,7,8-hexahydro-1H-pyrazolo[3,4-g]isoquinolin-4a-yl)(pyridin-2-yl)methanone], the figures for the Ki in experiment [1] and in experiment [2] were less than 0.5 nM and less than 20 nM, respectively.

Regarding `Cn1cc(C(=O)[C@]23Cc4cnn(-c5ccc(F)cc5)c4C=C2CCN(S(=O)(=O)c2ccc(Cl)c(Cl)c2)C3)cn1` [Example 11CC, (R)-(6-((3,4-dichlorophenyl)sulfonyl)-1-(4-fluorophenyl)-4,4a,5,6,7,8-hexahydro-1H-pyrazolo[3,4-g]isoquinolin-4a-yl)(1-methyl-1H-pyrazol-4-yl)methanone], the Ki is greater than 1 nM in experiment [1] and 20 to 100 nM in experiment [2].

For the molecule `CC(C)n1cc(S(=O)(=O)N2CCC3=Cc4c(cnn4-c4ccc(F)cc4)C[C@]3(C(=O)c3ccccn3)C2)cn1` [Example 11CD, (R)-(1-(4-fluorophenyl)-6-((1-isopropyl-1H-pyrazol-4-yl)sulfonyl)-4,4a,5,6,7,8-hexahydro-1H-pyrazolo[3,4-g]isoquinolin-4a-yl)(pyridin-2-yl) methanone], the Ki in experiment [1] is less than 0.5 nM; in experiment [2] it was less than 20 nM.

Turning to `Cn1ncc(S(=O)(=O)N2CCC3=Cc4c(cnn4-c4ccc(F)cc4)C[C@]3(C(=O)c3cc(C(F)(F)F)ccn3)C2)n1` [Example 11CE, (R)-(1-(4-fluorophenyl)-6-((2-methyl-2H-1,2,3-triazol-4-yl)sulfonyl)-4,4a,5,6,7,8-hexahydro-1H-pyrazolo[3,4-g]isoquinolin-4a-yl)(4-(trifluoromethyl)pyridin-2-yl)methanone], the Ki was less than 0.5 nM in experiment [1] and less than 20 nM in experiment [2].

For the molecule `Cn1nncc1S(=O)(=O)N1CCC2=Cc3c(cnn3-c3ccc(F)cc3)C[C@]2(C(=O)c2cc(C(F)(F)F)ccn2)C1` [Example 11CF, (R)-(1-(4-fluorophenyl)-6-((1-methyl-1H-1,2,3-triazol-5-yl)sulfonyl)-4,4a,5,6,7,8-hexahydro-1H-pyrazolo[3,4-g]isoquinolin-4a-yl)(4-(trifluoromethyl)pyridin-2-yl)methanone], the Ki was greater than 1 nM in experiment [1] and 20 to 100 nM in experiment [2].

Take `Cn1cc(S(=O)(=O)N2CCC3=Cc4c(cnn4-c4ccc(F)cc4)C[C@]3(C(=O)c3cc(C(F)(F)F)ccn3)C2)nn1` [Example 11CG, (R)-(1-(4-fluorophenyl)-6-((1-methyl-1H-1,2,3-triazol-4-yl)sulfonyl)-4,4a,5,6,7,8-hexahydro-1H-pyrazolo[3,4-g]isoquinolin-4a-yl)(4-(trifluoromethyl)pyridin-2-yl)methanone]: the Ki in experiment [1] was less than 0.5 nM; in experiment [2], less than 20 nM.

For `CCn1ncc(S(=O)(=O)N2CCC3=Cc4c(cnn4-c4ccc(F)cc4)C[C@]3(C(=O)c3ccccn3)C2)n1` [Example 11CH, (R)-(6-((2-ethyl-2H-1,2,3-triazol-4-yl)sulfonyl)-1-(4-fluorophenyl)-4,4a,5,6,7,8-hexahydro-1H-pyrazolo[3,4-g]isoquinolin-4a-yl)(pyridin-2-yl)methanone], the Ki was less than 0.5 nM in experiment [1] and less than 20 nM in experiment [2].

In the case of `CCn1nncc1S(=O)(=O)N1CCC2=Cc3c(cnn3-c3ccc(F)cc3)C[C@]2(C(=O)c2ccccn2)C1` [Example 11CI, (R)-(6-((1-ethyl-1H-1,2,3-triazol-5-yl)sulfonyl)-1-(4-fluorophenyl)-4,4a,5,6,7,8-hexahydro-1H-pyrazolo[3,4-g]isoquinolin-4a-yl)(pyridin-2-yl)methanone], the Ki in experiment [1] was greater than 1 nM; in experiment [2], 20 to 100 nM.

For the molecule `CCn1cc(S(=O)(=O)N2CCC3=Cc4c(cnn4-c4ccc(F)cc4)C[C@]3(C(=O)c3ccccn3)C2)nn1` [Example 11CJ, (R)-(6-((1-ethyl-1H-1,2,3-triazol-4-yl)sulfonyl)-1-(4-fluorophenyl)-4,4a,5,6,7,8-hexahydro-1H-pyrazolo[3,4-g]isoquinolin-4a-yl)(pyridin-2-yl)methanone], the results for the Ki in experiment [1] and in experiment [2] were less than 0.5 nM and 20 to 100 nM, respectively.

In the case of `CCn1ncc(S(=O)(=O)N2CCC3=Cc4c(cnn4-c4ccc(F)cc4)C[C@]3(C(=O)c3cc(C(F)(F)F)ccn3)C2)n1` [Example 11CK, (R)-(6-((2-ethyl-2H-1,2,3-triazol-4-yl)sulfonyl)-1-(4-fluorophenyl)-4,4a,5,6,7,8-hexahydro-1H-pyrazolo[3,4-g]isoquinolin-4a-yl)(4-(trifluoromethyl)pyridin-2-yl)methanone], the results for the Ki in experiment [1] and in experiment [2] were less than 0.5 nM and less than 20 nM, respectively.

As to `CCn1nncc1S(=O)(=O)N1CCC2=Cc3c(cnn3-c3ccc(F)cc3)C[C@]2(C(=O)c2cc(C(F)(F)F)ccn2)C1` [Example 11CL, (R)-(6-((1-ethyl-1H-1,2,3-triazol-5-yl)sulfonyl)-1-(4-fluorophenyl)-4,4a,5,6,7,8-hexahydro-1H-pyrazolo[3,4-g]isoquinolin-4a-yl)(4-(trifluoromethyl)pyridin-2-yl)methanone], the Ki in experiment [1] is greater than 1 nM; in experiment [2], 20 to 100 nM.

For the molecule `CCn1cc(S(=O)(=O)N2CCC3=Cc4c(cnn4-c4ccc(F)cc4)C[C@]3(C(=O)c3cc(C(F)(F)F)ccn3)C2)nn1` [Example 11CM, (R)-(6-((1-ethyl-1H-1,2,3-triazol-4-yl)sulfonyl)-1-(4-fluorophenyl)-4,4a,5,6,7,8-hexahydro-1H-pyrazolo[3,4-g]isoquinolin-4a-yl)(4-(trifluoromethyl)pyridin-2-yl)methanone], the figures for the Ki in experiment [1] and in experiment [2] were less than 0.5 nM and less than 20 nM, respectively.

Regarding `CCCn1ncc(S(=O)(=O)N2CCC3=Cc4c(cnn4-c4ccc(F)cc4)C[C@]3(C(=O)c3ccccn3)C2)n1` [Example 11CN, (R)-(1-(4-fluorophenyl)-6-((2-propyl-2H-1,2,3-triazol-4-yl)sulfonyl)-4,4a,5,6,7,8-hexahydro-1H-pyrazolo[3,4-g]isoquinolin-4a-yl)(pyridin-2-yl)methanone], the Ki in experiment [1] is less than 0.5 nM; in experiment [2], less than 20 nM.

`CCCn1nncc1S(=O)(=O)N1CCC2=Cc3c(cnn3-c3ccc(F)cc3)C[C@]2(C(=O)c2ccccn2)C1` [Example 11CO, (R)-(1-(4-fluorophenyl)-6-((1-propyl-1H-1,2,3-triazol-5-yl)sulfonyl)-4,4a,5,6,7,8-hexahydro-1H-pyrazolo[3,4-g]isoquinolin-4a-yl)(pyridin-2-yl)methanone]: the figures for the Ki in experiment [1] and in experiment [2] were greater than 1 nM and 20 to 100 nM, respectively.

Consider `CCCn1cc(S(=O)(=O)N2CCC3=Cc4c(cnn4-c4ccc(F)cc4)C[C@]3(C(=O)c3ccccn3)C2)nn1` [Example 11CP, (R)-(1-(4-fluorophenyl)-6-((1-propyl-1H-1,2,3-triazol-4-yl)sulfonyl)-4,4a,5,6,7,8-hexahydro-1H-pyrazolo[3,4-g]isoquinolin-4a-yl)(pyridin-2-yl)methanone], for which the results for the Ki in experiment [1] and in experiment [2] were less than 0.5 nM and less than 20 nM, respectively.

(Values after US12226412B2, “Heteroaryl-ketone fused azadecalin glucocorticoid receptor modulators” (Corcept Therapeutics, Inc., priority 2012, dated 2025).)
